# Assay results taken from paper PMC9276531, “Hyaluronic acid–GPRC5C signalling promotes dormancy in haematopoietic stem cells” (Nature Cell Biology, 2022).
# Columns and labels:
# Format in all cases: cell-based
# GPRC5C [1] = target: T1, GPRC5C (Homo sapiens, UniProt Q9NQ84, N41L, form not given); assay: PRESTO-Tango beta-arrestin recruitment, luciferase; conditions: HTLA cells, putative N-glycosylation site mutant
# T1 construct: GPRC5C-Tango plasmid, N-terminal Flag, PRESTO-Tango reporter fusion; transfected in HTLA or HEK293T cells
# GPRC5C [2] = target: T2, GPRC5C (Homo sapiens, UniProt Q9NQ84); assay: competition with HA-fluorescein on transfected HEK293T cells, flow cytometry; conditions: 100 uM NAG, 8 ug HA-fluorescein, 60 min, room temperature
# T2 construct: GPRC5C-Tango plasmid, N-terminal Flag, PRESTO-Tango reporter fusion; transfected in HTLA or HEK293T cells
# GPRC5C [3] = target: T2, GPRC5C; assay: PRESTO-Tango beta-arrestin recruitment, luciferase; conditions: HTLA cells, 24 h, HEPES/HBSS pH 7.4
# T2 sequence (Q9NQ84 24-441): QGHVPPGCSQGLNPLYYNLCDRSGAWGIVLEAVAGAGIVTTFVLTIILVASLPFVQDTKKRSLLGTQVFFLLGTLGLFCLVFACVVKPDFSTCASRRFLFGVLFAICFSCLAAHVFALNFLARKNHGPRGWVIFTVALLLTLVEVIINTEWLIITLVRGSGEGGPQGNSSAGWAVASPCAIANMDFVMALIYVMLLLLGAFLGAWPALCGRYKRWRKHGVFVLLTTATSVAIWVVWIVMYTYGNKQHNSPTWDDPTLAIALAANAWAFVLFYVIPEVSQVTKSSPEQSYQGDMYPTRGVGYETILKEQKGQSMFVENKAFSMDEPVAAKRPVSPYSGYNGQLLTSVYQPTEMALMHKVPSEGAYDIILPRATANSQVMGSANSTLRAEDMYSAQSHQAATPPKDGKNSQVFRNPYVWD
# T1 sequence (Q9NQ84 12-429 N41L): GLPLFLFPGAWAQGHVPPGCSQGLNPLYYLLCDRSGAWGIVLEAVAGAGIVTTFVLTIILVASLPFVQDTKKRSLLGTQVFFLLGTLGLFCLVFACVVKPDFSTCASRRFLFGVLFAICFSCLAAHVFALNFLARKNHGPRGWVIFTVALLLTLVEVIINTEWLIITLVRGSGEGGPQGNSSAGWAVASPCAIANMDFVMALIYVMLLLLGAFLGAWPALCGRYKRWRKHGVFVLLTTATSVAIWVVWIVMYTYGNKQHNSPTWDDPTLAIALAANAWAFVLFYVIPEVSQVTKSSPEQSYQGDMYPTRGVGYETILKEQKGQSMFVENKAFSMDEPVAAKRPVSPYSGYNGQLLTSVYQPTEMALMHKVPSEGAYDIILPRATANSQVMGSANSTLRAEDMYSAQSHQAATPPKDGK
smiles,measurement,setting,value
"CC(=O)N[C@H]1C(O)O[C@H](CO)[C@@H](O)[C@@H]1O (stereo partly drawn) [NAG, N-acetyl-D-glucosamine]",concentration-response (agonist),GPRC5C [1],dampened the luciferase response that was previously elicited by treatment with HA and NAG
same,"competition with HA-fluorescein on transfected HEK293T cells, flow cytometry",GPRC5C [2],HA interaction with GPRC5C was reduced when NAG was present
same,concentration-response (agonist),GPRC5C [3],HA and NAG treatments led to a dose-dependent response
